Reference: patent publication US20250090441A1, “ANTI-CARIES PEPTIDES WITH ANTIMICROBIAL AND REMINERALIZING PROPERTIES AND METHODS THEREOF” (THE UNIVERSITY OF HONG KONG, priority 2023, published 2025)
Where a SMILES comes first, the peptide text is derived from it.

Key:
Format in all cases: cell-based
[1] = system: Candida albicans in multiple-species cariogenic biofilm; test: Multiple-species cariogenic biofilm, PMA-qPCR; conditions: three-species biofilm treated with GAPI, n=6 per group
Description: (§1) A multiple-species cariogenic biofilm consisting of Streptococcus mutans, Lacticaseibacillus casei and Candida albicans was cultured to assess the anti-biofilm properties of GAPI. The culture medium was modified-artificial saliva as described in a previous protocol (Yassin et al. 2016). The biofilm was cultured on glass slides in 24-well plates with 1×10^7 Streptococcus mutans, 1×10^7 Lacticaseibacillus casei and 1×10^5 Candida albicans for 48 h. The biofilm was then treated with GAPI. The biofilm with no treatment was the negative control. After another 48-h incubation, the biofilm was collected for sequent assessments. The architecture of the multiple-species biofilm was assessed using scanning electron microscopy (SEM) and confocal laser scanning microscopy (CLSM). The sample was prepared with our published protocol (Niu et al. 2021d). The growth kinetics of the multiple-species biofilm were analyzed using propidium monoazide-quantitative polymerase chain reaction (PMA-qPCR) (Loozen et al. 2011). Biofilm was suspended in phosphate-buffered solution. The suspension was treated with propidium monoazide (PMA) (Biotium, San Francisco, USA) and exposed to halogen light photoactivation (PMA-Lite™, Biotium, San Francisco, USA). The brightness (luminosity) of the light device is 600-800 millicandela and its wavelength is 465-475 nm. Then deoxyribonucleic acid (DNA) was extracted from PMA-treated biofilm suspension using QIAamp DNA Mini Kit (QIAGEN, Dusseldorf, Germany). The oligonucleotide primers and TaqMan probes were used to quantify multiple-species cariogenic biofilm species: SMUT-forward(F), SMUT-reverse(R) and SMUT-probe(P) for Streptococcus mutans, Lc-F, Lc-R, Lc-P for Lactobacillus casei and Ca—F, Ca—R and Ca-P for Candida albicans […]. […]
(§2) Biofilm was suspended in phosphate-buffered solution. […] The oligonucleotide primers and TaqMan probes were used to quantify multiple-species cariogenic biofilm species: SMUT-forward(F), SMUT-reverse(R) and SMUT-probe(P) for Streptococcus mutans, Lc-F, Lc-R, Lc-P for Lactobacillus casei and Ca—F, Ca—R and Ca-P for Candida albicans (Table 3). […]

[2] = system: Lacticaseibacillus casei in multiple-species cariogenic biofilm; test: Multiple-species cariogenic biofilm, PMA-qPCR; conditions: three-species biofilm treated with GAPI, n=6 per group
Description: as §1, §2

[3] = system: Streptococcus mutans in multiple-species cariogenic biofilm; test: Multiple-species cariogenic biofilm, PMA-qPCR; conditions: three-species biofilm treated with GAPI, n=6 per group
Description: as §1, §2

[4] = system: Human gingival fibroblast (HGF-1) cells; test: Biocompatibility, cytotoxicity by Cell Counting Kit-8 Assay
Description: The biocompatibility of GAPI was evaluated by cytotoxicity assay using Cell Counting Kit-8 Assay (CCK-8, Apexbio, MA, USA) (Zhang et al. 2019). Human gingival fibroblast (HGF-1, Otwo Biotech Inc., China) cells (1×10^5/mL) were cultured and treated with GAPI. The cells cultured with the only medium were negative controls. The optical density values indicating the number of viable cells was measured at 450 nm after 24 h of incubation.

CC(C)[C@@H]1NC(=O)[C@H](CCCN=C(N)N)NC(=O)[C@H](Cc2ccccc2)NC(=O)[C@@H](NC(=O)[C@H](Cc2c[nH]c3ccccc23)NC(=O)[C@H](CCCN=C(N)N)NC(=O)[C@H](CCCN=C(N)N)NC(=O)c2cc(O)c(O)c(O)c2)CSSC[C@@H](C(=O)N[C@@H](CCCN=C(N)N)C(=O)O)NC(=O)[C@H](CCCCN)NC(=O)[C@H](CCCN=C(N)N)NC(=O)[C@H](Cc2ccc(O)cc2)NC(=O)[C@@H]2CSSC[C@H](NC1=O)C(=O)N[C@@H](Cc1ccc(O)cc1)C(=O)N[C@@H](CCCN=C(N)N)C(=O)NCC(=O)N[C@@H](Cc1ccccc1)C(=O)N2 [GAPI, Gallic-Acid-Polyphemusin-I] (HELM PEPTIDE1{[O=C(c1cc(O)c(O)c(O)c1)[*:2]].R.R.W.C.F.R.V.C.Y.R.G.F.C.Y.R.K.C.R}$PEPTIDE1,PEPTIDE1,5:R3-18:R3|PEPTIDE1,PEPTIDE1,9:R3-14:R3$$$V2.0)
log 10 cell counts of Candida albicans [1]: 6.63±0.55 | log 10 cell counts of Lacticaseibacillus casei [2]: 7.33±0.38 | log 10 cell counts of Streptococcus mutans [3]: 6.05±0.37 | optical density values (450 nm, viable cells) versus negative control ([4]; 80, 160, 320 and 640 μM, HGF-1 cells, 24 h): no significant difference | cytotoxicity to HGF-1 cells ([4]; CCK-8, 24 h): low cytotoxicity
